According to publication PMC6403188, “Species-Specific Structural Requirements of Alpha-Branched Trehalose Diester Mincle Agonists” (Frontiers in Immunology, 2019):

Assays:
mouse Mincle = biological target: T1, mouse Mincle (Mus musculus, UniProt Q9R0Q8); test: HEK cells expressing mouse Mincle with NF-κB-driven SEAP reporter; assay type: cell-based; details: average calculated EC50, n = 3; plate-coated compound, 24 h; read-out: mMincle EC50 (converted)
T1 construct: host or cells: HEK (HEK-Blue) cells with NF-κB-driven SEAP reporter
T1 sequence (Q9R0Q8 1-214): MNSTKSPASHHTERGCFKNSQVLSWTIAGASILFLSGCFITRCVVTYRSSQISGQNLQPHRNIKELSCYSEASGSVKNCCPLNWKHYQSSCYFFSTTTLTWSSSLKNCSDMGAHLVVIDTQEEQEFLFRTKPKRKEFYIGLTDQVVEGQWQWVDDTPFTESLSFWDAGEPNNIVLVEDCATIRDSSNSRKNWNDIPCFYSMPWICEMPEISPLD
Method: Human and mouse Mincle expressing HEK cells were obtained from Invivogen (San Diego, CA). Cells were cultured according to the manufactures instructions in DMEM with 10% FBS, 50 U/ml penicillin, […] streptomycin, […] Normocin, 2 mM L-glutamine, 30 μg/ml blasticidin, 1 μg/ml puromycin and 1x HEK-Blue™ CLR Selection. For assay, indicated compounds were serially diluted in diluent (50%IPA/50% isooctane), 20 μl of a 10x final concentration were applied to the bottom of a 96-well tissue culture plate and the solvent was evaporated for >1 h in a biosafety hood. HEK cells were applied to the plates at a density of 3 × 10^5 cells/well and incubated for 18–24 h at 37°C. Cell supernatants were harvested and analyzed via the manufacturer's instructions using Hek-Blue^TM Detection. SEAP activity was assessed by reading the optical density (OD) at 620–655 nm with a microplate reader; data are expressed as the fold change in OD over vehicle treated cells.
To investigate the capacity of these molecules to bind to and activate the Mincle receptor, we used human embryonic kidney (HEK) cells expressing the human or mouse Mincle receptor along with an NF-κB-driven secreted embryonic alkaline phosphatase (SEAP) reporter. Many of the αTDE compounds were able to induce production of SEAP in a dose dependent manner (Figure 2). HEK null cells (HEK cells containing the NF-kB reporter without Mincle receptor) were used as a negative controls to confirm the receptor specificity of the compounds in HEK cells expressing human or mouse Mincle reporter (Supplemental Figure 4). […] The relative activity of TDM and TDB in the human and mouse HEK cells is consistent with the results reported by others ([20]). […] This synthetic version is a shorter chain version of the lipid-derived one reported to be “human-specific” ([28]).
Figure 2 Activation of human or mouse Mincle in response to synthetic αTDE compounds. The indicated compounds were dissolved in 50% isopropanol/isooctane, serially diluted in vehicle and then dried to the bottom of a tissue culture plate. HEK cells transfected with human (A–C) or mouse (D–F) Mincle and an NF-κB-driven SEAP reporter were incubated with the compounds for 24 h followed by assessment of the supernatants for SEAP levels. Data are represented as fold change in OD650 over vehicle treated cells. Graphs are mean values from three independent experiments ± SEM. Table in (G) represents the average calculated EC50 and average max SEAP value (± SD, n = 3) for each compound in each cell line. […]

primary human PBMCs = test: Cytokine production from primary human PBMCs (multiplex); assay type: cell-based; details: plate-coated compound, 24 h, 5 individual donors
Source text: PBMCs were obtained via leukapheresis from normal donors (AllCells, Berkeley, CA) or fresh blood was obtained from health human donors through a University of Montana Institutional Review Board (IRB) approved protocol. PBMCs obtained via leukapheresis were washed in 1x PBS and cryopreserved in freezing media (50% RPMI, 40% FCS, 10% DMSO) for future use. PBMCs from on-site human donors were separated from whole blood via density gradient separation using Histopaque 1077 (Sigma). Cells were washed in RPMI media containing 10% heat inactivated FBS, penicillin/streptomycin/glutamine (complete media) and resuspended at the desired cell concentration in complete media. Cells were treated with the indicated compound concentrations by addition to plates coated with a serial dilution of the stock compound in diluent (50% isopropanol/50% isooctane, fully evaporated).
Supernatants were harvested from treated cells following 18–24 h of incubation. Supernatants were analyzed using a DuoSet TNFα ELISA (R&D Systems, Minneapolis, MN) or Luminex multiplex panel for analytes TNFα, IL-1β, IL-6, IFNγ, IL-12p70, and IL-23 (R&D Systems) per the manufacturer's instructions. Multiplex analysis was performed using a Luminex 200 instrument (Luminex Corporation) and analyzed with StarStation2.3 software. ELISAs were read on a plate reader at 450 nm and cytokine concentration was calculated by fitting the standard curve OD values to a 4-parameter logistical model using curve fitting software (XLfit, IDBS, Alameda, CA).
To determine if the abridged cytokine repertoire induced by the compounds from the cell lines was a cell-specific or compound-specific phenomenon, the response of a heterogeneous primary human PBMCs to the αTDE compound library was also evaluated. Primary human PBMCs were incubated with the αTDE compound and supernatants were evaluated by multiplex cytokine ELISA for TNFα, IL-1β, IL-23, IL-6 (Th17 associated) and IFNγ and IL-12p70 (Th1 associated). As with THP-1 cells, robust dose-responsive induction of TNFα and IL-1β was detected, but unlike the THP-1 cells dose-responsive stimulation of IL-6 and IL-23 production was also noted in response to a subset of the αTDE compounds (Figure 5). No production of the Th1-associated IFNγ or IL-12p70 were detected (data not shown). […] Consistent with the previous THP-1 cell responses, the longer chain length compounds, B32-B46, induced minimal cytokine responses only at the highest dose evaluated (Figure 5, right graphs).
Figure 5 Cytokine production from primary human mononuclear cells in response to stimulation with synthetic trehalose diester compounds. […] Cryopreserved PBMCs were thawed and applied to the compound-coated plates and incubated at 37°C; supernatant was harvested 24 h later and analyzed for TNFα, IL-1β, IL-23, IL-6. […]

[1] = system: Hek Blue human or mouse Mincle-expressing cells; assay type: cell-based; details: top concentrations, 24 h; compared with vehicle only-treated cells
BALB/c mice [2] = test: Splenocyte restimulation with M72 and intracellular cytokine staining of CD4/CD8 T cells after vaccination; assay type: in vivo, mouse
Method: (§1) Animal studies were carried out in an OLAW and AAALAC accredited vivarium in accordance with University of Montana's IACUC guidelines for the care and use of laboratory animals. Groups of 10–14 BALB/c mice were vaccinated intramuscularly with 0.125 μg M72 antigen and indicated concentrations of various CLR adjuvant candidates (liposomal formulations) in 50 μl total volume per injection. After 14 days, blood and serum samples were collected and a secondary vaccination was administered. At day 19 (5 days post-secondary vaccination), 3–6 mice per group were euthanized and spleens were harvested the assessment of cell-mediated immunity. At day 28 (14 days post booster vaccination) the remaining 7 mice in each group were euthanized and blood was collected for the measurement of M72 specific humoral immunity.
Spleens were harvested from vaccinated mice 5 days after secondary injections and splenocytes were harvested by disruption of the spleens through a 100 μm filter. Red blood cells were lysed by incubation with red blood cell lysis buffer (Sigma) for 5 min followed by washing in 1x PBS. Cells were plated in a 96 well plate at 5 × 10^6 cells/well in 200 μL complete RPMI1640 media. Cells were incubated with 1 μg/mL M72 antigen for […] at 37°C. After 7 h, GolgiPlug (Brefeldin A, BD Biosciences) was added to each well and incubated at 37°C for a further 12 h. Following incubation, cells were stained with the cell surface antibodies against CD3e PerCP-Cy5.5 (Tonbo Biosciences, 145-2C11), CD4a APC-Cy7 (Tonbo Biosciences, RM4-5) and CD8a PE-Cy7 (Tonbo Biosciences, 53–6.7) and viability stain (Ghost 510, Tonbo Biosciences). Cells were treated with cytofix/cytoperm (BD) and stained with anti-IFNγ PE-CF594 (BD, XMG1.2), anti-IL2 FITC (Biolegend, JES6-5H4), anti-IL-5 PE (BD, TRFK5), anti-IL17A BV421 (Biolegend, TC11-18H10.1), and anti-TNFα APC (Invitrogen, MP6-XT22). Data was collected using an LSRII flow cytometer (BD) and analyzed using FlowJo 10.0 software (TreeStar). Splenocytes were gated on live, single cells, then CD3+ to identify all T cells, then gated as CD4+CD8- to identify CD4 T cells or CD4-CD8+ to identify CD8 T cells. Gates for intracellular cytokine positive CD4 or CD8 T cells are set based on re-stimulation of naïve splenocytes. Gating strategies for the detection of antigen specific CD4+ and CD8+ T cells are outlined in Supplemental Figure 3.
Figure 7 Induction of IL-17 producing CD4+ and CD8+ T cells from an αTDE adjuvanted M72 vaccine. BALB/c mice, 10 per group, were immunized two times i.m. with 0.125 μg antigen plus 2, 10, or 50 nmol of the indicated adjuvant. Spleens were harvested from a subset of 3 mice per group at 5 days post-secondary vaccination. Splenocytes were restimulated with 1 μg/mL whole antigen and transport inhibitors followed by surface staining for CD3, CD4, and CD8 and then intracellular cytokine staining. Data represent percentage of live, CD3^+/CD4^+, left, or CD3^+/CD8^+, right, cells that are also positive for IL-17A upon stimulation.
(§2) Figure 8 B16 liposomes biases a Th17/Th2 adaptive immune response. BALB/c mice, 14 per group, were immunized twice, 14 days apart, i.m with 0.1, 1, or 10 μg of M72 antigen plus either blank DDA:DSPC liposome or B16 loaded (10 nmol final dose) liposome. (A,B) M72-specific serum antibody titers at 14 days post-secondary vaccination. (C–F) Spleens were harvested from mice at 5 days post-secondary vaccination and restimulated with 1 μg/mL whole antigen and transport inhibitors followed by surface staining for CD3, CD4, and CD8 and then intracellular cytokine staining. (C) Percent of live, CD3^+/CD4^+/IL5+ cells, (D) Percent of live, CD3^+/CD8^+/IFNγ+ cells, (E) Percent of live, CD3^+/CD4^+/IL17+ cells, and (F) Percent of live, CD3^+/CD8^+/IL17+ cells. ^*p < 0.05, ^**p < 0.01, ^****p < 0.001.
Supplemental Figure 10. Production of IFNɣ, IL-2, IL-5 or TNFα by CD4 or CD8 T cells in response to various CLR compounds. […]

BALB/c mice [3] = test: Anti-M72 serum antibody ELISA after i.m. vaccination with M72 antigen plus liposomal adjuvant; assay type: in vivo, mouse; details: 0.125 μg M72 antigen plus 2, 10, or 50 nmol adjuvant in DDA:DSPC liposomes, i.m. two times, 14 days post-secondary vaccination
Method: as §1
Sera was collected from mice 14 days post-primary and 14 days post-secondary injection and diluted according to the expected antibody response (between 1:10 and 1:5000). Plates were coated with 100 μl of the full-length M72 protein at 1 μg/mL. Following washing (PBS plus tween 20) and blocking (SuperBlock, Scytek Laboratories), plates were incubated with diluted serum for 1 h followed by anti-mouse IgG, IgG1, or IgG2a-HRP secondary antibody (Bethyl Laboratories) and TMB substrate (BD). Plates were read at 450 nm. Antibody titers were determined by calculating titer of each sample at OD 0.3.
Figure 6 Serum antibody levels from mice in response to vaccination with recombinant M72 antigen and various αTDE compounds. BALB/c mice, 10 per group, were vaccinated two times i.m. with 0.125 μg antigen plus 2, 10, or 50 nmol of the indicated adjuvant. Serum was analyzed from 7 mice at 14 days post-secondary vaccination for presence of anti-M72 IgG1 and IgG2a antibodies via ELISA.
as §2

Row | SMILES | EC50 (mouse Mincle) [nM] | Th17-associated cytokine production (TNFα, IL-1β, IL-6, IL-23) from human PBMCs (primary human PBMCs) | Cell viability of Mincle HEK cells [1] | IL-5 production in CD8+ T cells (BALB/c mice [2]; 2 nmol adjuvant, 0.125 μg antigen, over liposome control) | IL-5 production in CD8+ T cells (BALB/c mice [2]; 50 nmol adjuvant, 0.125 μg antigen, over naïve and liposome control) | IL-17+ CD4+ and CD8+ T cells (Th17 response) after M72 re-stimulation (BALB/c mice [2]; 0.125 μg antigen plus 2, 10, or 50 nmol liposomal adjuvant, i.m. two times, spleens 5 days post-secondary) | TNFα production by T cells (BALB/c mice [2]; highest dose evaluated, 0.125 μg antigen, compared to controls) | Anti-M72 serum IgG1 and IgG2a antibody (BALB/c mice [3])
1 | CCC(CC)C(=O)OC[C@H]1O[C@H](O[C@H]2O[C@H](COC(=O)C(CC)CC)[C@@H](O)[C@H](O)[C@H]2O)[C@H](O)[C@@H](O)[C@@H]1O [Compound B6] | 739 | mixed responses | – | – | – | – | – | –
2 | CCCC(CCC)C(=O)OC[C@H]1O[C@H](O[C@H]2O[C@H](COC(=O)C(CCC)CCC)[C@@H](O)[C@H](O)[C@H]2O)[C@H](O)[C@@H](O)[C@@H]1O [Compound B8] | 2850 | readily detected | marked decreases in viability | – | – | – | – | –
3 | CCCCCCCCCCCCCCCCCCCCC(CCCCCCCCCCCCCCCCCCCC)C(=O)OC[C@H]1O[C@H](O[C@H]2O[C@H](COC(=O)C(CCCCCCCCCCCCCCCCCCCC)CCCCCCCCCCCCCCCCCCCC)[C@@H](O)[C@H](O)[C@H]2O)[C@H](O)[C@@H](O)[C@@H]1O [Compound B42] | – | – | – | increased | increased | able to drive superior Th17 responses | increased compared to controls | neither compound significantly enhanced
4 | CCCCC(CCCC)C(=O)OC[C@H]1O[C@H](O[C@H]2O[C@H](COC(=O)C(CCCC)CCCC)[C@@H](O)[C@H](O)[C@H]2O)[C@H](O)[C@@H](O)[C@@H]1O [Compound B10] | 3450 | readily detected | marked decreases in viability | – | – | – | – | –
